# Reference: PMC7468911 (Nutrients, 2020)
# Biological target: T1, ABCC11 (Homo sapiens, UniProt Q96J66)
# T1 construct: full-length human ABCC11 WT
# Assay: cell-based
# Conditions: read-out: ABCC11-Mediated DHEA-S Transport (% of Control)
# T1 sequence (Q96J66 whole entry): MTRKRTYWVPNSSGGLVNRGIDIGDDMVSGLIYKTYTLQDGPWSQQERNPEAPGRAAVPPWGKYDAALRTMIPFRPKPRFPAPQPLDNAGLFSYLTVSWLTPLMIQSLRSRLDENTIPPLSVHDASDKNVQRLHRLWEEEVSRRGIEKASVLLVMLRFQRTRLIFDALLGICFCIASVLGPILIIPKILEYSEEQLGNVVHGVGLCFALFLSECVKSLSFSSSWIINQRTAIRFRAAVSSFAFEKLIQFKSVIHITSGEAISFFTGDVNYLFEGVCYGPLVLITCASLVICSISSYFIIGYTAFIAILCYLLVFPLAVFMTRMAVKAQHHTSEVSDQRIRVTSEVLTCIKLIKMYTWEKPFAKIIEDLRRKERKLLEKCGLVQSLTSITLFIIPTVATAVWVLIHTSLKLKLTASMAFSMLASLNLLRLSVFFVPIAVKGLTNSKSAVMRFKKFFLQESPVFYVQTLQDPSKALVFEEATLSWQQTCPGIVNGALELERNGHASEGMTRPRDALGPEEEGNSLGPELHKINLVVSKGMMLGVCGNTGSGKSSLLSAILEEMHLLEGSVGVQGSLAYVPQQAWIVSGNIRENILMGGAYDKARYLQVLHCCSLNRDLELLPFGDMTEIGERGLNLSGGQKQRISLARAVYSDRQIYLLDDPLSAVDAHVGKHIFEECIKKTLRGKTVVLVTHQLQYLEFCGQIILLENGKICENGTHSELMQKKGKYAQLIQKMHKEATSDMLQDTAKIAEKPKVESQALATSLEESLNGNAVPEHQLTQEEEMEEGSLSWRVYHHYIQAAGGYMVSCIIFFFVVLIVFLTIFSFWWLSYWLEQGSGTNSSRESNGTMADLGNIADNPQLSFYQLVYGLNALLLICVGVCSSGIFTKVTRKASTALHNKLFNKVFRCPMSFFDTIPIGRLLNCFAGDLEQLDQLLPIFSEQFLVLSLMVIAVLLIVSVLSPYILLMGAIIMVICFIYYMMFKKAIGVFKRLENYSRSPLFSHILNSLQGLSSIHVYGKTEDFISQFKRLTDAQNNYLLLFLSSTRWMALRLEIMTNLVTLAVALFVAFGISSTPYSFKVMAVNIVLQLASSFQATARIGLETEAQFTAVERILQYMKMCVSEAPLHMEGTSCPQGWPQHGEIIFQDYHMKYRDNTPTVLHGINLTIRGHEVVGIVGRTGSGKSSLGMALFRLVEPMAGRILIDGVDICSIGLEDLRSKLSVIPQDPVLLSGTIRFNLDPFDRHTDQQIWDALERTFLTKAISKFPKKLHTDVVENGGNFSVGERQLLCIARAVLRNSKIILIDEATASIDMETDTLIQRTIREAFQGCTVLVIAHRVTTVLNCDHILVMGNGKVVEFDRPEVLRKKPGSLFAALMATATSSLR
row,Compound,remaining activity at 100 µM [%]
1,"O=C(/C=C/c1ccc(O)cc1)c1c(O)cc(O)cc1O [compound 19, naringenin chalcone]",12.4 ± 4.2
2,"COc1ccc(-c2cc(=O)c3c(OC)c(OC)c(OC)c(OC)c3o2)cc1OC [compound 5, nobiletin]",0
3,"O=C(O[C@@H]1Cc2c(O)cc(O)cc2O[C@H]1c1ccc(O)c(O)c1)c1cc(O)c(O)c(O)c1 [compound 23, (−)-catechin gallate]",10.5 ± 6
4,"O=c1c(O)c(-c2ccc(O)c(O)c2)oc2cc(O)c(O)c(O)c12 [compound 16, quercetagetin]",0
5,"O=C(CCc1ccc(O)cc1)c1c(O)cc(O)cc1O [compound 20, phloretin]",0.6 ± 3.9
6,"O=c1cc(-c2ccc(O)c(O)c2)oc2cc(O)cc(O)c12 [compound 4, luteolin]",0

# Biological target: T1, ABCC11
# Assay: inhibition of ATP-dependent [3H]-DHEA-S transport in plasma membrane vesicles from ABCC11-expressing […] cells
# Format: biochemical
# Conditions: not given
row,IC50 [µM],Compound
1,61.5,O=c1c(-c2ccc(O)cc2)coc2cc(O)cc(O)c12 [genistein]

# Biological target: T1, ABCC11
# Assay: biochemical
# Design: Vesicle transport assay: ATP-dependent uptake of radiolabeled DHEA-S into ABCC11-expressing membrane vesicles, rapid filtration, scintillation counting
# Conditions: ABCC11-mediated DHEA-S transport, % of control, 5 min, 37 °C
# From the text: The inhibitory effects of the various target extracts and compounds on the ABCC11 function were examined using the in vitro vesicle transport assay, a well-established method to quantitatively evaluate ABC transporter function. For this purpose, the ATP-dependent transport of [1,2,6,7-^3H(N)]-dehydroepiandrosterone sulfate (DHEA-S) (PerkinElmer, Waltham, MA, USA), which is an ABCC11 substrate, into the ABCC11-expressing and control plasma membrane vesicles was quantified following our previous study with some minor modifications in the rapid filtration technique, as described below. In brief, the plasma membrane vesicles (0.25 mg/mL or indicated concentrations) were incubated with [1,2,6,7-^3H(N)]-DHEA-S (100 nM or indicated concentrations) in a reaction mixture (total 20 μL: 10 mM Tris/HCl, 250 mM sucrose, 10 mM MgCl2, 10 mM creatine phosphate, 1 mg/mL creatine phosphokinase, 50 mM ATP or AMP as a substitute of ATP, and pH 7.4) for 5 min at 37 °C, either without (i.e., with only vehicle control) or with the individual target fractions/authentic chemicals at the indicated concentrations. As the vehicle control, 1% water was used for plant extracts; 1% methanol (Nacalai Tesque) or 1% dimethyl sulfoxide (DMSO; Nacalai Tesque) was used for the individual target fractions, as described below. Since stock solutions of authentic chemicals were prepared with DMSO at 10 mM, 1% DMSO was employed as the vehicle control for them. After incubation, the reaction mixture was mixed with 980 μL of an ice-cold stop buffer (2 mM EDTA, 0.25 M sucrose, 0.1 M NaCl, 10 mM Tris-HCl, and pH 7.4) and rapidly filtered on a membrane filter (MF-Millipore Membrane (HAWP02500; Millipore, Tokyo, Japan) for extract screening or Whatman™ Grade GF/F Glass Microfiber Filter Paper (GE Healthcare) for the other experiments). After washing with 5 mL of the ice-cold stop buffer three times, the plasma membrane vesicles trapped on the membrane filter were dissolved in Clear-sol II (Nacalai Tesque). Then, the radioactivity incorporated into the plasma membrane vesicles was measured with a liquid scintillator (Tri-Carb 3110TR; PerkinElmer). The transport activity in each group was calculated as the incorporated clearance (μL/mg protein/min = incorporated level of DHEA-S (disintegrations per minute (DPM)/mg protein/min)/DHEA-S level in the incubation mixture (DPM/μL)). ATP-dependent DHEA-S transport was calculated by the difference in transport activity with and without ATP. Similarly, ABCC11-mediated DHEA-S transport activity was calculated by subtracting the ATP-dependent DHEA-S transport activity of control plasma membrane vesicles from that of ABCC11-expressing ones. Unless otherwise indicated, effects of the target fractions/compounds on the ATP-dependent DHEA-S transport activity were also examined for the control plasma membrane vesicles.
row,remaining activity at 100 µM [%],Compound
1,63.6 ± 5.9,O=c1c(O)c(-c2ccccc2)oc2cc(O)cc(O)c12 [Galangin]
2,91.9 ± 5.9,Oc1cc(O)c2c(c1)O[C@H](c1ccc(O)c(O)c1)[C@@H](O)C2 [(+)-Catechin]
3,37.7 ± 1,O=c1c(O)c(-c2ccc(O)c(O)c2)oc2cc(O)ccc12 [Fisetin]
4,5.2 ± 26.9,COc1ccc([C@@H]2CC(=O)c3c(O)cc(O)cc3O2)cc1O [Hesperetin]
5,41.5 ± 3.4,O=c1c(O)c(-c2ccc(O)cc2O)oc2cc(O)cc(O)c12 [Morin]
6,43.2 ± 26,O=C1c2c(O)cc(O)cc2O[C@H](c2ccc(O)c(O)c2)[C@H]1O [Taxifolin]
7,19.7 ± 13.6,COc1cc(O)c(CC=C(C)C)c(O)c1C(=O)/C=C/c1ccc(O)cc1 [Xanthohumol]
8,56.9 ± 23.4,O=C1c2c(O)cc(O)cc2O[C@H](c2cc(O)c(O)c(O)c2)[C@H]1O [Dihydromyricetin]
9,85.2 ± 24.4,Oc1cc(O)c2c(c1)O[C@H](c1ccc(O)c(O)c1)[C@H](O)C2 [(−)-Epicatechin]
10,73.4 ± 10.8,COc1cc(O)cc(O)c1C(=O)/C=C/c1ccccc1 [Cardamonin]
11,25.3 ± 12.5,O=c1cc(-c2ccc(O)cc2)oc2cc(O)cc(O)c12 [Apigenin]
12,42.8 ± 1,O=c1c(O)c(-c2ccc(O)cc2)oc2cc(O)cc(O)c12 [Kaempferol]

row,Compound,remaining activity at 100 µM [%]
1,O=C(O[C@@H]1Cc2c(O)cc(O)cc2O[C@H]1c1cc(O)c(O)c(O)c1)c1cc(O)c(O)c(O)c1 [(−)-Gallocatechin gallate],24 ± 2.5
2,O=c1c(O)c(-c2ccc(O)c(O)c2)oc2cc(O)cc(O)c12 [Quercetin],34.6 ± 18.3
3,O=c1c(O)c(-c2ccccc2)oc2ccccc12 [3-Hydroxyflavone],91.7 ± 1.1
4,Oc1cc(O)c2c(c1)O[C@H](c1cc(O)c(O)c(O)c1)[C@H](O)C2 [(−)-Epigallocatechin],83.6 ± 29
5,O=C1C[C@@H](c2ccc(O)cc2)Oc2cc(O)cc(O)c21 [Naringenin],38.4 ± 31.6
6,Oc1cc(O)c2c(c1)O[C@H](c1cc(O)c(O)c(O)c1)[C@@H](O)C2 [(+)-Gallocatechin],87.6 ± 27.6
7,O=C(O[C@@H]1Cc2c(O)cc(O)cc2O[C@@H]1c1cc(O)c(O)c(O)c1)c1cc(O)c(O)c(O)c1 [(−)-Epigallocatechin gallate],37.5 ± 7
8,O=c1c(O)c(-c2ccc(O)c(O)c2)oc2c(O)c(O)cc(O)c12 [Gossypetin],46 ± 8.4
